Data taken from US6787651B2, “Substituted indoles, pharmaceutical compounds containing such indoles and their use as PPAR-γ binding agents” (SmithKline Beecham Corporation, priority 2000, dated 2004).

What follows are molecules tested against T1, PPARγ ligand binding domain (LBD) (amino acids 195-475) (Homo sapiens, UniProt P37231) (assay: PPAR-γ binding assay (spin plate / gel filtration binding assay, displacement of [3H]BRL 49653)). Conditions: read-out: IC50 range in the PPAR-γ Binding Assay.
T1 construct: polyHis; made in house; host or cells: Escherichia coli
T1 sequence (P37231 195-475 isoform P37231-2): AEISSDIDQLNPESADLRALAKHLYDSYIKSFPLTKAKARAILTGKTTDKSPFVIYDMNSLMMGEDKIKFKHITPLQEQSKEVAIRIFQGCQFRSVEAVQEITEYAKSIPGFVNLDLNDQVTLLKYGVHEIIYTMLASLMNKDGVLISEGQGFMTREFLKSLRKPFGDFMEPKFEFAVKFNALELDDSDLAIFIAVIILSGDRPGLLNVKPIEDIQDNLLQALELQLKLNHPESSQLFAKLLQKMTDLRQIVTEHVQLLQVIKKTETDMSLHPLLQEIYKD
Experimental: The activity of a given compound in binding to PPAR-γ can be assayed routinely according to procedures known in the art. […] The PPAR-γ binding assay described below was used to determine the PPAR-γ binding activities of the compounds of the invention.
Compounds were tested for their ability to bind to PPARγ using a spin plate assay (gel filtration binding assay). […] Each compound was tested in triplicate. […] The plates were centrifuged (Beckman GS-6R) at 2500 rpm for 5 minutes, 170 μl Scitisafe® scintillation fluid (Fisher) was added to each well, the plates were sealed, and after 1 hour, were counted in a Wallac MicroBeta counter. The amount of nonspecific binding, as assessed by control wells containing 10 μM of the corresponding unlabeled ligand, was subtracted from each data point. For each compound tested, the data was averaged and plots of ligand concentration versus CPM of radioligand bound were constructed. Apparent IC50 values were estimated from nonlinear least-squares fit of the data assuming simple competitive binding.
Work on COc1cccc(Cn2c(C(=O)O)c(-c3ccc(OCC4CC4)cc3)c3cc(OCC4CCC4)ccc32)c1 [Example 314] yielded an IC50 of 0.1 to 9.99 nM.
With O=C(O)c1[nH]c2c(C(=O)c3ccccc3)cccc2c1-c1ccccc1 [Example 251] the IC50 was 10 to 10000 nM.
For O=C(O)c1c(-c2nc3ccccc3s2)c2ccccc2n1Cc1cccc(OCC2CC2)c1 [Example 250], the IC50 was 0.1 to 9.99 nM.
For COc1ccc(-c2c(C(=O)O)n(Cc3cccc(OC)c3)c3ccc(OCCN(C)c4nc5ccccc5o4)cc23)cc1 [Example 233], the IC50 was 10 to 10000 nM.
In the case of COc1ccc(-c2c(C(=O)NS(=O)(=O)c3ccc(OC)cc3)n(Cc3cccc(C(F)(F)F)c3)c3ccccc23)cc1 [Example 357], the IC50 is reported as 0.1 to 9.99 nM.
Molecule COc1ccc(-c2c(C(=O)O)n(CC(=O)c3ccccc3)c3ccccc23)cc1 [Example 281] has an IC50 of 10 to 10000 nM.
O=C(O)c1c(C2=NC3(CCCC3)CO2)c2ccccc2n1Cc1cccc(C(F)(F)F)c1 [Example 239] showed an IC50 of 10 to 10000 nM.
COc1cccc(Cn2c(C(=O)O)c(-c3ccc(OCC4CC4)cc3)c3cc(OCC4CC4)ccc32)c1 [Example 334] was tested, and the IC50 was 0.1 to 9.99 nM.
Work on COc1ccc(-c2c(C(=O)O)n(S(=O)(=O)c3cccc(C(F)(F)F)c3)c3ccccc23)cc1 [Example 337, 3-(4-Methoxyphenyl)-1-{[3-(trifluoromethyl)phenyl]sulfonyl}indole-2-carboxylic acid] yielded an IC50 of 10 to 10000 nM.
For COCCOc1ccc2c(c1)c(-c1ccc(OCC3CC3)cc1)c(C(=O)O)n2Cc1cccc(OC)c1 [Example 312], the IC50 was 0.1 to 9.99 nM.
COc1cccc(Cn2c(C(=O)O)c(-c3ccc(C(C)(C)C)cc3)c3cccc(CC4CC4)c32)c1 [Example 256] was tested, and the IC50 was 10 to 10000 nM.
With COc1cccc(Cn2c(C(=O)O)c(-c3cccc(NC(=O)C4CC4)c3)c3ccccc32)c1 [Example 326] the IC50 was 10 to 10000 nM.
Molecule O=C(O)c1c(-c2ccc(S(=O)(=O)C3CC3)cc2)c2ccccc2n1Cc1cccc(C(F)(F)F)c1 [Example 353, 3-[4-(Cyclopropylsulfonyl)phenyl]-1-{[3-(trifluoromethyl)phenyl]methyl}indole-2-carb-oxylic acid] has an IC50 of 0.1 to 9.99 nM.
For O=C(O)c1c(-c2cc3ccccc3s2)c2ccccc2n1Cc1cccc(C(F)(F)F)c1 [Example 232, 3-(Benzothien-2-yl)-1-[3-(trifluoromethyl)benzyl)-indole-2-carboxylic acid], the IC50 was 0.1 to 9.99 nM.
Molecule COc1cccc(Cn2c(C(=O)O)c(-c3ccc(C4(C)CC4)cc3)c3ccccc32)c1 [Example 258] has an IC50 of 0.1 to 9.99 nM.
O=C(O)c1c(-c2ccc(OCC3CC3)cc2)c2ccccc2n1Cc1cccc(C(F)(F)F)c1 [Example 308] showed an IC50 of 0.1 to 9.99 nM.
Work on COc1cccc(COc2ccc3c(c2)c(-c2ccc(OCC4CC4)cc2)c(C(=O)O)n3Cc2cccc(OC)c2)c1 [Example 315] yielded an IC50 of 0.1 to 9.99 nM.
For Cc1sc(-c2ccccc2)nc1CCOc1ccc2c(c1)cc(C(=O)O)n2CC1CCCO1 (centres unmarked) [Example 276], the IC50 was 10 to 10000 nM.
COc1ccc(-c2c(C(=O)C(F)(F)F)n(Cc3cccc(C(F)(F)F)c3)c3ccccc23)cc1 [Example 360, 2,2,2-Trifluoro-1-{3-(4-methoxyphenyl)-1-[3-(trifluoromethyl)benzyl]-1H-indol-2-yl}ethanone] gave an IC50 of 10 to 10000 nM.
With COc1cccc(Cn2c(C(=O)O)c(-c3ccc(OCC4CC4)cc3)c3cc(OCC=O)ccc32)c1 [Example 313] the IC50 was 0.1 to 9.99 nM.
For COc1cccc(Cn2c(C(=O)O)c(-c3ccc(C(C)(C)C)cc3)c3cc(CC4CC4)ccc32)c1 [Example 253], the IC50 was 0.1 to 9.99 nM.
With COc1cccc(Cn2c(C(=O)O)c(-c3ccc(OCC4CC4)cc3)c3cc(OCc4ccc(C(C)(C)C)cc4)ccc32)c1 [Example 318] the IC50 was 10 to 10000 nM.
In the case of COc1cccc(Cn2c(C(=O)O)c(-c3cccc(OCC4CC4)c3)c3cc(OCCOCc4ccccc4)ccc32)c1 [Example 272], the IC50 is reported as 0.1 to 9.99 nM.
CC1(C)COC(c2c(C(=O)O)n(Cc3cccc(C(F)(F)F)c3)c3ccccc23)=N1 [Example 238] showed an IC50 of 10 to 10000 nM.
With COc1cccc(Cn2c(C(=O)O)c(-c3ccc(OCC4CC4)cc3)c3cc(OCC(=O)O)ccc32)c1 [Example 267] the IC50 was 10 to 10000 nM.
Molecule CN1CCN(C(=O)c2c(C(=O)O)n(Cc3cccc(C(F)(F)F)c3)c3ccccc23)CC1 [Example 246] has an IC50 of 10 to 10000 nM.
